Laboratory results taken from publication PMC12196235, “Enhancing the Pharmacological Properties of Triterpenes Through Acetylation: An Anticancer and Antioxidant Perspective” (Molecules, 2025).
Several values for one entry are separate records, joined by “and”; a condition that tells them apart may be missing. Equal entries are not always repeated. Where two headings read alike, the source gives them in different places.

Tests used:
[1] = test system: HeLa (human cervical epithelioid carcinoma); assay: MTT assay, HeLa; format: cell-based; conditions: for IC50: MTT assay, HeLa, read-out: IC50 (±SD), HeLa; for Selectivity index (SI), HeLa: IC50 HDF / IC50 HeLa
Protocol: (§1) All the cell lines and mediums were obtained from the American Type Culture Collection (ATCC) supplied by LGC-Standards (Lomianki, Poland). Human cancer cell lines were cultured as follows: HeLa (human cervix carcinoma) and KB (human oral squamous carcinoma) lines were cultured in DMEM (Dulbecco’s Modified Eagle’s Medium); MCF-7 (human breast carcinoma) and A-549 (human lung carcinoma) were cultured in RPMI 1640 medium; PC-3 (human prostate carcinoma) was cultured in F-12K medium; SKOV-3 (human ovarian cystadenocarcinoma) was cultured in McCoy’s modified medium; HDF (human normal dermal fibroblasts) was cultured in Fibroblast Basal Medium. Each medium was supplemented with 10% fetal bovine serum, 1% L- glutamine and 1% penicillin/streptomycin solution. The cell lines were kept in an incubator at 37 °C.
(§2) All the tested cell lines (HeLa, KB, MCF-7, A-549, PC-3, SKOV-3 and HDF) were subjected to MTT assay. In short, this assay is based on the reaction between mitochondria enzymes (dehydrogenases) of tested cell lines and 3-(4,5-dimethylthiazol-2-yl)-2,5-diphenyltetrazolium bromide (MTT). The final product of this reaction gives violet formazan crystals. The number of live cells is proportional to the amount of formazan and is represented by the violet dye reagent. The details of the experiments are given in [19].

[2] = test system: KB (human oral squamous carcinoma); assay: MTT assay, KB; format: cell-based; conditions: for IC50: MTT assay, KB; for Selectivity index (SI), KB: IC50 HDF / IC50 KB
Protocol: as §1, §2

[3] = test system: MCF-7 (human breast carcinoma); assay: MTT assay, MCF-7; format: cell-based; conditions: for IC50: MTT assay, MCF-7, read-out: IC50 (±SD), MCF-7; for Selectivity index (SI), MCF-7: IC50 HDF / IC50 MCF-7
Protocol: as §1, §2

[4] = test system: A-549 (human lung carcinoma); assay: MTT assay, A-549; format: cell-based; conditions: for IC50: MTT assay, A-549, read-out: IC50 (±SD), A-549; for Selectivity index (SI), A-549: IC50 HDF / IC50 A-549
Protocol: as §1, §2

[5] = test system: PC-3 (human prostate carcinoma); assay: MTT assay, PC-3; format: cell-based; conditions: for IC50: MTT assay, PC-3, read-out: IC50 (±SD), PC-3; for Selectivity index (SI), PC-3: IC50 HDF / IC50 PC-3
Protocol: as §1, §2

[6] = test system: SKOV-3 (human ovarian carcinoma); assay: MTT assay, SKOV-3; format: cell-based; conditions: for IC50: MTT assay, SKOV-3, read-out: IC50 (±SD), SKOV-3; for Selectivity index (SI), SKOV-3: IC50 HDF / IC50 SKOV-3
Protocol: as §1, §2

[7] = test system: HDF (human dermal fibroblasts); assay: MTT assay, normal HDF; format: cell-based; conditions: read-out: IC50 (±SD), HDF
Protocol: as §1, §2

[8] = test system: HeLa, KB, MCF-7, A-549, PC-3 and SKOV-3; assay: MTT assay, summary over the cancer cell lines; format: cell-based, human; conditions: for cytotoxic activity class: classification by IC50 (good ≤ 10 μM, moderate 10–30 μM, ref 83)
Protocol: as §1, §2

[9] = test system: SKOV-3; assay: Apoptosis assay (Cell Death Detection ELISA Plus), SKOV-3; format: cell-based, human; conditions: SKOV-3, 4 h incubation, enrichment of mono- and oligonucleosomes vs negative control
Protocol: (§3) The induction of apoptosis by tested compounds was determined with Cell Death Detection ELISA Plus from Roche Diagnostics GmbH (Mannheim, Germany).
(§4) Cell Death Detection ELISA Plus is an enzyme immunoassay for determining cytoplasmic histone-associated DNA fragments (mono- and […]) after induced cell death. Cells (10^4) were pipetted into wells of 96-well plates, and test compounds were added at final concentrations of 0.1, 1.0 and 10.0 µg × mL^−1. Cells incubated in the absence of test compounds served as negative controls. After 4 h of incubation, cells were harvested by centrifugation of the plates for 10 min at 200× g. Supernatants were removed carefully, and cell pellets were resuspended in 200 µL of cell lysis buffer and incubated for 30 min at room temperature. After centrifugation of the plates (10 min at 200× g), 20 µL of cell lysates was transferred in duplicate into wells of provided streptavidin-coated microplates. Then, 80 µL of the immunoreagent containing a mixture of anti-histone-biotin monoclonal antibody and anti-DNA-peroxidase monoclonal antibody was added to each well. The microplates were covered with a provided adhesive foil and incubated for 2 h at room temperature. Thereafter, the solution in the wells was removed by tapping the microplate. The wells were rinsed three times with incubation buffer, and 100 µL of substrate (2,2′-azino-bis [3-ethylbenzothiazoline-6-sulphonic acid], ABTS) was added to each well. After 10–20 min, 100 µL of ABTS stop solution was pipetted to each well, and the absorbance was read at 405 nm (test wavelength) and 490 nm (reference wavelength). The apoptotic index was calculated based on the enrichment of mono- and oligonucleosomes according to the following equation:apoptotic index = [{A405(sample) − A490(sample)}/{A405(negative control) − A490(negative control)}]

[10] = test system: PC-3; assay: Apoptosis assay (Cell Death Detection ELISA Plus), PC-3; format: cell-based, human; conditions: PC-3, 4 h incubation, enrichment of mono- and oligonucleosomes vs negative control
Protocol: as §3, §4

[11] = CUPRAC antioxidant assay; conditions: calculated from Trolox standard curve
Protocol: (§5) The results are presented as % inhibition of the copper(II) ions and Trolox equivalent calculated from the standard curve (Figure 9) and as % inhibition of the DPPH radical and Trolox equivalent, calculated from the standard curve (Figure 10).
(§6) The CUPRAC reagent (7.5 mM ethanolic 96% neocuproine solution, 10 mM CuCl2 × H2O solution and an ammonium acetate buffer of pH 7.0) and DPPH reagent (2,2-diphenyl-1-picrylhydrazyl 0.2 mM solution) were applied.
(§7) The CUPRAC method measures the reducing power of a sample by quantifying its ability to convert the Cu-neocuproine reagent complex to the Cu(I) form. In contrast, the DPPH assay relies on the ability of an antioxidant to donate a hydrogen atom or an electron to the stable DPPH radical, resulting in its reduction and subsequent color change. The results are presented as % inhibition of the copper(II) ions and Trolox equivalent calculated from the standard curve (Figure 9) and as % inhibition of the DPPH radical and Trolox equivalent, calculated from the standard curve (Figure 10). The spectroscopic detection in CUPRAC and DPPH assays was conducted with Synergy H1 Multi-Mode Microplate Reader (BioTek Instruments, Inc., Winooski, VT, USA). The details of the experiments are given in [102].

[12] = DPPH antioxidant assay; conditions: calculated from Trolox standard curve
Protocol: as §5, §6, §7

[13] = test system: KB (human oral squamous carcinoma); conditions: ref 104; cited from earlier work
[14] = test system: Hep-G2 (human hepatocellular carcinoma); conditions: ref 105; read-out: IC50 (Hep-G2); cited from earlier work
[15] = test system: HT-29 (human colorectal adenocarcinoma); conditions: ref 105; read-out: IC50 (HT-29); cited from earlier work
[16] = test system: A-549 (human lung carcinoma); conditions: ref 104; read-out: IC50 (A-549); cited from earlier work
[17] = test system: KB-VIN (multidrug resistant human epidermoid carcinoma); conditions: ref 104; cited from earlier work
[18] = test system: B16-F10 (murine melanoma); conditions: cited from earlier work
[19] = test system: RAW 264.7; conditions: ref 106; cited from earlier work
[20] = test system: J774A.1 (macrophage-like cell line); conditions: ref 106; cited from earlier work

CC(=O)O[C@H]1CC[C@]2(C)[C@H]3CC=C4[C@@H]5CC(C)(C)CC[C@]5(C(=O)O)CC[C@@]4(C)[C@]3(C)CC[C@H]2C1(C)C [1b, 3-O-Acetyloleanolic acid]
IC50 ([1]; Homo sapiens): 0.24 µM
Selectivity index (SI), HeLa [1]: 0.79
IC50 ([2]; Homo sapiens): 0.36 µM
Selectivity index (SI), KB [2]: 0.53
IC50 ([3]; Homo sapiens, MCF7): 1.86 µM
Selectivity index (SI), MCF-7 [3]: 0.10
IC50 ([4]; Homo sapiens, A549): 0.24 µM
Selectivity index (SI), A-549 [4]: 0.79
IC50 ([5]; Homo sapiens): 0.11 µM
Selectivity index (SI), PC-3 [5]: 1.73
IC50 ([6]; Homo sapiens, SK-OV-3): 0.09 µM
Selectivity index (SI), SKOV-3 [6]: 2.11
IC50 ([7]; Homo sapiens, Fibroblast): 0.19 µM
cytotoxic activity class [8]: very high cytotoxic activity
Apoptotic index (AI), SKOV-3 [9]: 6.79 (0.16)
Apoptotic index (AI), PC-3 [10]: 6.90 (0.04)
Trolox Equivalent, CUPRAC Assay [11]: 0.2199 mg/mL and 0.2199 ± 0.00657 mg/mL
Trolox Equivalent, DPPH Assay [12]: 0.0143 ± 0.000592 mg/mL
IC50 [13]: 7.6 µM
IC50 [14]: 104 µM
IC50 [15]: 148 µM
IC50 [16]: 5.8 µM
IC50 [17]: 7.6 µM
IC50 ([18]; ref 105): 64.7 µM
IC50 ([18]; ref 107): 64.7 µM
IC50 [19]: 13.8 µM
IC50 [20]: 16.8 µM

CC(=O)OCC12CCC(C)(C)CC1C1=CCC3C4(C)CCC(OC(C)=O)C(C)(C)C4CCC3(C)C1(C)CC2 (stereo not shown) [2b, 3,28-di-O-Acetylerythrodiol]
IC50 ([1]; Homo sapiens): 70.3 µM
Selectivity index (SI), HeLa [1]: 0.75
IC50 ([2]; Homo sapiens): 50 µM
Selectivity index (SI), KB [2]: 1.06
IC50 ([3]; Homo sapiens, MCF7): 61.6 µM
Selectivity index (SI), MCF-7 [3]: 0.86
IC50 ([4]; Homo sapiens, A549): 51.6 µM
Selectivity index (SI), A-549 [4]: 1.03
IC50 ([5]; Homo sapiens): 25.1 µM
Selectivity index (SI), PC-3 [5]: 2.11
IC50 ([6]; Homo sapiens, SK-OV-3): 25.5 µM
Selectivity index (SI), SKOV-3 [6]: 2.08
IC50 ([7]; Homo sapiens, Fibroblast): 53.1 µM
Trolox Equivalent, CUPRAC Assay [11]: 0.2402 mg/mL and 0.2402 ± 0.00995 mg/mL
Trolox Equivalent, DPPH Assay [12]: 0.00313 ± 0.00013 mg/mL

CC1(C)CC[C@]23CC[C@]4(C)[C@H](CC[C@@H]5[C@@]6(C)CC[C@H](O)C(C)(C)[C@@H]6CC[C@]54C)[C@H]2[C@H]1OC3 [3a, allobetulin]
IC50 ([1]; Homo sapiens): 49.4 µM
Selectivity index (SI), HeLa [1]: 0.97
IC50 ([2]; Homo sapiens): 45.3 µM
Selectivity index (SI), KB [2]: 1.06
IC50 ([3]; Homo sapiens, MCF7): 71.1 µM
Selectivity index (SI), MCF-7 [3]: 0.68
IC50 ([4]; Homo sapiens, A549): 51.7 µM
Selectivity index (SI), A-549 [4]: 0.93
IC50 ([5]; Homo sapiens): 20.2 µM
Selectivity index (SI), PC-3 [5]: 2.39
IC50 ([6]; Homo sapiens, SK-OV-3): 20.9 µM
Selectivity index (SI), SKOV-3 [6]: 2.30
IC50 ([7]; Homo sapiens, Fibroblast): 48.2 µM
IC50 ([8]; Homo sapiens, MTT assay, range over tested cancer cell lines): 20 to 70 µM
Apoptotic index (AI), SKOV-3 [9]: 5.78 (0.01)
Apoptotic index (AI), PC-3 [10]: 5.27 (0.01)
Trolox Equivalent, CUPRAC Assay [11]: 0.08248 mg/mL and 0.08248 ± 0.005 mg/mL
Trolox Equivalent, DPPH Assay [12]: 0.01677 ± 0.000694 mg/mL

CC(=O)OC1CCC2(C)C(CCC3(C)C2CCC2C4C5OCC4(CCC5(C)C)CCC23C)C1(C)C (stereo not shown) [3b, 3-O-Acetylallobetulin]
IC50 [1]: > 100 µM
IC50 [2]: > 100 µM
IC50 [3]: > 100 µM
IC50 [4]: > 100 µM
IC50 [5]: 52.2 µM
IC50 [6]: 53.1 µM
IC50 [7]: 62 µM
Trolox Equivalent, CUPRAC Assay [11]: 0.03212 mg/mL and 0.03212 ± 0.00166 mg/mL
Trolox Equivalent, DPPH Assay [12]: 0.00182 mg/mL and 0.00182 ± 0.000755 mg/mL

C=C(C)C1CCC2(C(=O)O)CCC3(C)C(CCC4C5(C)CCC(OC(C)=O)C(C)(C)C5CCC43C)C12 (stereo not shown) [4b, 3-O-Acetylbetulinic acid]
IC50 ([1]; Homo sapiens): 1.62 µM
Selectivity index (SI), HeLa [1]: 1.77
IC50 ([2]; Homo sapiens): 1.5 µM
Selectivity index (SI), KB [2]: 1.92
IC50 ([3]; Homo sapiens, MCF7): 1.5 µM
Selectivity index (SI), MCF-7 [3]: 1.92
IC50 ([4]; Homo sapiens, A549): 1.23 µM
Selectivity index (SI), A-549 [4]: 2.34
IC50 ([5]; Homo sapiens): 0.93 µM
IC50 ([6]; Homo sapiens, SK-OV-3): 1.03 µM
IC50 ([7]; Homo sapiens, Fibroblast): 2.88 µM
cytotoxic activity class [8]: very high cytotoxic activity
Apoptotic index (AI), SKOV-3 [9]: 7.81 (0.02)
Apoptotic index (AI), PC-3 [10]: 7.09 (0.01)
Trolox Equivalent, CUPRAC Assay [11]: 0.1999 mg/mL and 0.1999 ± 0.0015 mg/mL
Trolox Equivalent, DPPH Assay [12]: 0.00376 ± 0.000156 mg/mL

C=C(C)[C@@H]1CC[C@]2(C)CC[C@]3(C)[C@H](CC[C@@H]4[C@@]5(C)CC[C@H](OC(C)=O)C(C)(C)[C@@H]5CC[C@]43C)[C@@H]12 [6b, 3-O-Acetylolupeol]
IC50 [1]: 72.6 µM
IC50 [2]: 72.5 µM
IC50 [3]: 50 µM
IC50 [4]: 56.2 µM
IC50 [5]: 22.2 µM
IC50 [6]: 21.1 µM
IC50 [7]: 35 µM
Trolox Equivalent, CUPRAC Assay [11]: 0.1349 ± 0.00514 mg/mL
Trolox Equivalent, DPPH Assay [12]: 0.00348 ± 0.000144 mg/mL
